Experiments:
[1] = test system: Intestinal Phosphate Absorption; experiment: Intestinal phosphate absorption: oral 33P dose after gavage of phosphate binder; assay type: in vivo, rats; conditions: 14.4 mg Renagel or 10 mg DAB-8 as acetate or citrate; 10 mM KH2PO4; 60 min
Description: Animals. Male Sprague-Dawley rats (Harlan Sprague-Dawley, Madison, Wis.) weighing approximately 120 grams were used in all experiments.
In experiments to measure ^33P absorption, the rats were fed a laboratory chow diet (Lab Diet 5012, Richmond, Ind.) containing 1% calcium and 0.7% phosphorus ad libitum for less than one week prior to the experiment.
Intestinal Phosphate Absorption. Following an overnight fast, rats were administered 0.5 mL water or an oral phosphate binder dissolved in water via gastric gavage. A second dose of 0.5 mL containing 3 μCi ^33P (as H3PO4, specific activity 155.8 Ci/mg, New England Nuclear/Perkin Elmer, Boston, Mass.) in a 10, 50, or 100 mM KH2PO4 buffer at pH 7.4 was immediately administered via gastric gavage. Rats were killed by CO2 asphyxiation immediately or 60 minutes after the oral dose. The rats killed immediately (labeled “0 min control” in figures) were used to determine if the oral ^33P dose was properly administered and completely recovered.
Blood was collected via heart puncture and centrifuged at 1500×g for 15 minutes at 22° C. to yield serum. A suture was tied to the cranial end of the esophagus to contain liquid inside the stomach. The entire digestive tract was then removed and allowed to dissolve for several days in concentrated HNO3 (approximately 1 mL HNO3 per gram tissue). The exact volume of the dissolved digestive tract was determined by diluting the dissolved tissues to equal volumes with water.
The amount of radioactivity in total body serum and total volume of dissolved tissue was determined following liquid scintillation counting of 50 μL aliquots in triplicate (Tri-Carb Liquid Scintillation Analyzer, Perkin-Elmer/Packard, Boston, Mass.). Total body serum was estimated to be 40 mL serum/kg body weight. (Hawk T et al., 1999, Formulary for laboratory animals, Ames, Iowa: Iowa State University Press.)
Statistical analysis. Data are presented as means±standard error of the means (SEM). Treatment groups were compared by a fully factorial analysis of variance (ANOVA) and means were subjected to Tukey, Scheffe, and Fisher's Least-Significant-Difference (LSD) tests (Systat 5.2.1, Systat Software, Inc., Point Richmond, Calif.). Differences were considered significant if at least two of the tests detected significance with a p-value <0.05, unless specified otherwise.
Materials and Methods. The relevant materials and methods were the same as set forth above except that instead of using “0.5 mL of water or 39.5 mg calcium acetate, 14.4 mg RENAGEL, or up to 132.8 mg of test dendrimer,” the following was used “0.5 mL of water, 14.4 mg RENAGEL or 10 mg DAB-8 as the hydroacetate or hydrocitrate form dissolved in water.”

[2] = test system: intestinal phosphorus absorption; experiment: Fecal phosphorus content, increasing dietary levels of DAB-8 hydroacetate for three weeks; assay type: in vivo, rats
Source text: Materials and Methods. Young male Sprague-Dawley rats weighing approximately 90 g were fed a purified diet containing 0.47% calcium and 0.2% inorganic phosphorus, solidified with molten agar, for 5 days. After this acclimation period, the rats were divided into 5 groups by body weight. One group remained on the control diet while the other 4 groups were fed diets containing increasing levels of DAB-8 in the hydroacetate salt form (0.09 to 0.7%). After 1, 2 and 3 weeks on the diets, the rats were moved to metabolic caging and 24 to 48 hour fecal collections were obtained. The feces were dried then ashed in a muffle oven at 700° C. for 24 hours. The resulting ash was dissolved in 6N HCl and the phosphorus content was measured using an in-house colorimetric assay.
Data are expressed as means±SEM. Data were subjected to analysis of variance (ANOVA), and group means compared using Tukey, Scheffe and Fisher's LSD test.
Young rats were either control diet (“0”), or the same diet containing one of four levels of DAB-8 as the hydroacetate for three weeks. Feces were collected from the rats using metabolic housing for 24 to 48 hours at the end of the first (week 1), second (week 2) or third (week 3) weeks. Feces was dried, then ashed in a muffle oven. Resulting ash was dissolved in 6N HCl. Phosphorus content was determined using an in-house colorimetric assay. *Indicates significant difference from control diet with a p-value of […].

## Polypropylenimine octaamine Dendrimer decahydroacetate [DAB-8 as acetate]
[1]
  33P in the serum compared with vehicle pretreatment (FIG. 26): significantly less
  33P retained in the gut compared with vehicle pretreatment (FIG. 25): significantly more
[2]; all four levels of the phosphate binder (0.09 to 0.7%)
  fecal phosphorus content versus control diet, first 2 weeks on the diet: significant increase
[2]; daily consumption, 0.09 to 0.7% of diet
  fecal phosphorus output: dose-dependent increase
[2]; inferred from fecal phosphorus, 0.09 to 0.7% of diet
  dietary phosphorus absorption in vivo: dose-dependent reduction
[2]; only the highest dietary level
  fecal phosphorus content versus control diet, week 3: retains significance

Source: patent US8114393B2, “Methods and compositions for phosphate binding” (Wisconsin Alumni Research Foundation, priority 2005, dated 2012)
